# According to paper PMC11062899, “De novo development of small cyclic peptides that are orally bioavailable” (Nature Chemical Biology, 2023):
# Where “and” joins values, the source holds several entries; their conditions need not be identical. Equal values may be shown once.
# Columns and labels:
# in vivo = settings: rat
# Experimental: Male Wistar Han rats (250–350 g) obtained at an age of 9–10 weeks from Charles River Laboratories were used for the studies and kept in housing groups of two or three. Experiments were performed at the age of 10–11 weeks. Intravenous (i.v.) administrations were carried out using tail vein injections. Peptides were dissolved in pure DMSO and diluted with 5% Cremophor EL in water (5% DMSO final) at a concentration of 0.5 mg ml^−1. I.v. administration was carried out at a dose of 1 mg kg^−1 body weight via the left lateral tail vein of rats (n = 3) using an Insyte-W 24 G × 0.75 in. (0.7 mm × 19 mm) temporary peripheral venous catheter (BD Biosciences, 381312). Before injecting the peptide solution, a correct placement of the catheter was confirmed by an apparent reflux of blood through the catheter. Orally (p.o.) administrated peptides were dissolved in DMSO and diluted with 10% Cremophor EL in water (5% DMSO final) at a concentration of 1 mg ml^−1 and administrated by oral gavage to rats (n = 3) at a dose of 10 mg kg^−1. Rats used for oral administration were fasted overnight for 14 h and provided access to food again 2 h after administration, whereas access to water was not restricted throughout the whole experimental procedure. Volumes of 100 μl of blood samples were collected via the right lateral tail vein at different timepoints after i.v. or p.o. administration into heparinized tubes (Sarstedt, 20.1282); the samples were stored on ice for up to 4 h; and plasma was obtained by centrifugation at 2,000g for 5 min at 4 °C. A volume of 40 μl of plasma was added to 120 μl of an acetonitrile:water (9:1) solution containing an internal standard (5 μg ml^−1). Samples were vortexed for 10 s and sonicated for 10 min, and precipitated plasma proteins were pelleted by centrifugation at 16,000g for 15 min at 4 °C. Volumes of 120 μl of supernatant were transferred to a new tube, and solvent was evaporated in a rotary vacuum concentrator (RVC 2–33 CDplus IR, Christ) for 2 h at 40 °C. Dried residues were dissolved in 20 μl of a water:acetonitrile (7:3) (v/v) solution, centrifuged at 14,000g for 5 min and analyzed by LC–MS. Peptides were quantified by extracting ion chromatograms corresponding to their respective mass, integrating the area under the peptide peak and calculating the concentrations by normalization to a calibration curve. Calibration curves were prepared by analyzing spiked samples of blood or plasma with known concentrations of peptide. The absolute oral bioavailability was calculated using equation (6).6 F=AUCp.o./AUCi.v.×Dosei.v./Dosep.o.×100 where AUCp.o. and AUCi.v. are calculated from a plasma concentration versus time curve using the linear trapezoidal rule, and Dosei.v. and Dosep.o. are the intravenously or orally administrated amount of peptide in mg kg^−1.
# [1] = Metabolic stability in rat liver microsomes (RLMs); settings: for TIC value of compound, metabolic stability RLM: replicates R1-R3; for microsomal CLint / half-life: rat, microsomes
# human α-thrombin = human α-thrombin (Homo sapiens, UniProt P00734); experiment: Screen of 8,448-member cyclic peptide library against thrombin (crude reactions, 10 μM); assay type: biochemical; settings: 10 μM crude peptide, slopes normalized to DMSO; for Residual thrombin activity: Replica: repeated acylation and screen
# Experimental: The cyclic peptides were N-acylated with activated carboxylic acids as follows. Volumes of 25 nl of cyclic peptides and 25 nl of activated carboxylic acids were transferred in a combinatorial fashion to 384-well microplates (Greiner, 781076) using an Echo 650 acoustic liquid handler (Labcyte). Plates were centrifuged at 2,000g for 2 min and incubated at room temperature for 8 h. […] The reaction products were screened for thrombin inhibition as follows. […] Thrombin inhibition was determined by measuring the fluorescent gain over time. Fluorescence intensity was measured on a Tecan Infinite […] microplate reader for 30 min at 25 °C with a fluorescent readout every 3 min (excitation: 360 nm, emission: 465 nm). Protease inhibition was calculated by comparing the enzymatic activity to a control without cyclic peptide. page 48: Supplementary Tables Supplementary Table 1 […] Cyclic peptide high-throughput screen. Category Parameter Description Assay Type of assay In vitro Target Human α thrombin Primary measurement Proteolytic cleavage of fluorogenic substrate Key reagents […] (Bachem) Assay protocol Described in Materials section “Thrombin library synthesis and screening” Additional comments - […] Library composition Cyclic peptides Source Combinatorial synthesis. Described in Methods section “Thrombin library synthesis and screening” Additional comments - Screen Format 384 well microtiter plates (Greiner, 781076) Concentration(s) tested 10 µM Plate controls 20 wells DMSO, 4 wells human α thrombin inhibitor R-11-25-2 (DOI: 10.1039/d0sc01944e) Reagent/ compound dispensing system Echo 650 (Beckman Coulter), […]) Detection instrument and software Tecan Infinite […] microplate reader Assay validation/QC Z' score: 0.86 Correction factors - Normalization Percent fluorescent gain over time as compared to DMSO Additional comments - […] Additional assay(s) Resynthesis and retesting of 20 best hits in original assay Confirmation of hit purity and structure Compounds were resynthesized and verified analytically Additional comments - 47
# [2] = male, Wistar Han, iv, 1 mg/kg, Concentration in blood samples
# [3] = male, Wistar Han, po, 10 mg/kg, Concentration in blood samples
# [4] = Half Life, RLM, individual replicates R1-R3
# [5] = Metabolic stability: RLM CL (ul/min/mg), RLMs, mean and SD, three measurements
# [6] = pH 7.4, Metabolic stability: Half life T1/2 (min), RLMs, mean and SD, three measurements
# [7] = CL (ul/min/mg protein) R1, RLM CL, replicate R1
# [8] = CL (ul/min/mg protein) R2, RLM CL, replicate R2
# [9] = CL (ul/min/mg protein) R3, RLM CL, replicate R3
# [10] = Half Life (min) R1, RLM metabolic stability, replicate R1, 0-60 min
# [11] = Half Life (min) R2, RLM metabolic stability, replicate R2, 0-60 min
# [12] = Half Life (min) R3, RLM metabolic stability, replicate R3, 0-60 min
# [13] = Metabolic stability: RLM CL R1, summary table, rounded, replicate R1
# [14] = Metabolic stability: RLM CL R2, summary table, rounded, replicate R2
# [15] = Metabolic stability: RLM CL R3, summary table, rounded, replicate R3
# [16] = male, Wistar Han, iv, 1 mg/kg, Plasma Concentration (uM)
Compound,bioavailability (in vivo; po) [%],"Cmax (in vivo; po, 10 mg/kg) [nM]","TIC value of compound, metabolic stability RLM ([1]; 0 min)","TIC value of compound, metabolic stability RLM ([1]; 5 min)","TIC value of compound, metabolic stability RLM ([1]; 15 min)","TIC value of compound, metabolic stability RLM ([1]; 30 min)","TIC value of compound, metabolic stability RLM ([1]; 60 min)","Half Life, RLM ([1]; individual replicates R1-R3)","half-life [1, 4] [min]","microsomal CLint [1, 5] [µL/min/mg]","half-life [1, 6] [min]",Residual thrombin activity: Screen (human α-thrombin),Residual thrombin activity: Replica (human α-thrombin),"microsomal CLint [1, 7] [µL/min/mg]","microsomal CLint [1, 8] [µL/min/mg]","microsomal CLint [1, 9] [µL/min/mg]","half-life [1, 10] [min]","half-life [1, 11] [min]","half-life [1, 12] [min]","microsomal CLint [1, 13] [µL/min/mg]",also measured
O=C1C[C@H]2CCCN2C(=O)[C@H](Cc2ccccc2)NC(=O)[C@@H](NC(=O)c2ccc(Cl)cc2)CCC=CCCCCN1 (mixture of isomers) [peptide 46],18.4 ± 1.9,400 ± 120,14110188 (2×) and 12352514,13677902 and 11194388 and 11188088,10674204 and 7516980 and 9028625,7710068 and 5736371 and 6256299,3465219 and 2801334 and 3774480,33.04 min and 32.99 min,33.4,43 ± 1,33 ± 1,,,,,,,,,,"Concentration in blood samples (in vivo; male, Wistar Han, iv, 1 mg/kg, 1 h): 90 nM; level at time molar at 0.08 h (in vivo; [2]): 1.31 µM; level at time molar at 0.25 h (in vivo; [2]): 0.59 µM; level at time molar at 0.5 h (in vivo; [2]): 280 nM; level at time molar at 1 h (in vivo; [2]): 120 nM; level at time molar at 2 h (in vivo; [2]): 0.0535 µM; level at time molar at 0.5 h (in vivo; [3]): 290 nM; level at time molar at 1 h (in vivo; [3]): 240 nM; level at time molar at 2 h (in vivo; [3]): 0.2 µM; level at time molar at 8 h (in vivo; [3]): 17.1 nM; CL, RLM ([1]; individual replicates R1-R3): 41.9492 ul/min/mg protein and 42.0127 ul/min/mg protein; microsomal CLint ([1]; CL, RLM, individual replicates R1-R3): 41.5 µL/min/mg"
CN1CCC(=O)NCCSCCS(=O)(=O)CCSC[C@H](NC(=O)c2ccc(Cl)s2)C(=O)N[C@@H](Cc2ccccc2)C1=O [compound 14],,,,,,,,,,117 ± 28,12.7 ± 3.6,29.3,33.0,78.3,132,141,17.7,10.5,9.82,78.3,"microsomal CLint [1, 14]: 132 µL/min/mg; microsomal CLint [1, 15]: 141 µL/min/mg; microsomal CLint ([1]; pH 7.4, Metabolic stability: RLM CL Average, summary table, average of R1-R3): 117 µL/min/mg"
O=C1C[C@H]2CCCN2C(=O)[C@H](Cc2ccccc2)NC(=O)[C@@H](NC(=O)c2ccc(Cl)s2)CSCCS(=O)(=O)CCSCCN1 [peptide 11],,,,,,,,,,82 ± 10,,3.1,1.5,92.9,68.2,83.9,14.9,20.3,16.5,92.9,"half-life ([1]; Metabolic stability: Half life T1/2 (min), RLMs, mean and SD, three measurements): 17.3 ± 2.3 min; microsomal CLint ([1]; Metabolic stability: RLM CL Average, summary table, average of R1-R3): 81.7 µL/min/mg; microsomal CLint [1, 14]: 68.2 µL/min/mg; microsomal CLint [1, 15]: 83.9 µL/min/mg"
O=C1C[C@H]2CCCN2C(=O)[C@H](Cc2ccccc2)NC(=O)[C@@H](NC(=O)c2ccc(Cl)s2)CCC=CCCCCN1 [peptide 43],4.5 ± 2.5,183 ± 96,15121279 (2×) and 12636158,12214985 and 10185041 and 10498454,8936637 and 6181065 and 6718551,4407741 and 2845968 and 2692424,749207 and 393357 and 268692,16.74 min and 14.9 min,17.3,,16.3 ± 1,,,,,,,,,,"level at time molar at 0.08 h (in vivo; [16]): 3.19 µM; level at time molar at 0.25 h (in vivo; [16]): 1.63 µM; level at time molar at 2 h (in vivo; [16]): 0.29 µM; Tmax (in vivo; male, Wistar Han, po): 30 min; CL (ul/min/mg protein) in RLMs (single replicates R1–R3) ([1]; Fig. 5e source data): 82.7957 ul/min/mg protein and 93.0201 ul/min/mg protein and 80.07 ul/min/mg protein and 82.80 ul/min/mg protein and 93.02 ul/min/mg protein; Half Life (min) in RLMs (single replicates R1–R3) ([1]; Fig. 5e source data): 16.74 min and 14.9 min; microsomal CLint ([1]; CL (ul/min/mg protein) in RLMs (single replicates R1–R3), Fig. 5e source data): 80.1 µL/min/mg; microsomal CLint ([1]; Clearance (CL) in RLMs, calculated from half-life, mean and s.d. of three measurements): 85 ± 6 µL/min/mg; half-life ([1]; Half Life (min) in RLMs (single replicates R1–R3), Fig. 5e source data): 17.3 min; microsomal CLint ([1]; pH 7.4, CL (ul/min/mg protein) in RLMs Average, Fig. 5e source data): 85.3 µL/min/mg"
